14 compounds from patent publication US20260125346A1, “Isoquinolinone Derivatives and 4H-Quinolizinone Derivatives and Pharmaceutical Compositions Thereof for the Treatment of Disease” (BeOne Medicines I GmbH, priority 2023, published 2026) can be followed below.

Where only a bound is given, the exact number is not on record here.

The test system of assay [1] is PI3Kα H1047R mutated cell line T-47D. The assay can be described thus: Phospho-AKT (Ser473) Inhibition Assay (HTRF), T-47D. To be noted: for IC50: Homo sapiens, T47D, T-47D, 1 hour treatment, read-out: p-AKT Inhibition assay (S473) IC50 T-47D; for Selectivity: SK-BR-3/T-47D (p-AKT): p-AKT (S473) IC50 ratio. The assay is classed as cell-based. The essentials: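 Cells seeded overnight in insulin-supplemented MEM, then treated 1 h with 11-point 1:3 compound dilutions (10 μM to 0.1 nM final, 0.1% DMSO). Lysates assayed for phospho-AKT Ser473 by HTRF; IC50 from 4-parameter logistic fit, normalised to DMSO (max) and 10 μM GDC0077 (min).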
(In general: TR-FRET usually uses a lanthanide donor and a delayed reading to cut background.)

Assay [2] concerns PI3Kα H1047R mutated cell line T-47D cells. The assay can be described thus: Cell Proliferation Assay (CellTiter-Glo), T-47D. The assay is classed as cell-based. To be noted: for IC50: Homo sapiens, T47D, 72 h, T-47D, 3 days treatment; for Selectivity: SK-BR-3/T-47D (cell proliferation): cell proliferation IC50 ratio. In a few lines: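 T-47D cells seeded overnight at 3×10^3/well, then exposed 3 days to 9-point 1:3 dilutions, final […] to 1 nM in 0.1% DMSO. CellTiter-Glo luminescence; relative IC50 from percent inhibition versus medium-only and 0.1% DMSO controls, 4-parameter logistic fit.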
On the technique in general: In ATP-based viability assays light output follows the ATP content of the culture.

Assay [3] addresses PI3Kα (p110[H1047R]/p85) kinase (Homo sapiens, UniProt P42336, H1047R). Nature of the assay: PI3Kα (p110[H1047R]/p85) kinase ADP-Glo Assay. It counts as biochemical. The settings on record: 25 uM ATP; for selectivity: WT/H1047R: ADP-Glo Assay IC50 ratio. The essentials:
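PI3Kα H1047R/p85 pre-incubated 30 min at room temperature with PI(4,5)P2:PS substrate ([…]) and compound ([…]) in HEPES pH 7.5 buffer with MgCl2; ATP ([…]) then added for 120 min. ADP quantified by ADP-Glo luminescence; IC50 from four-parameter logistic fit.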

Sequence of PI3Kα (p110[H1047R]/p85) kinase (P42336 whole entry H1047R): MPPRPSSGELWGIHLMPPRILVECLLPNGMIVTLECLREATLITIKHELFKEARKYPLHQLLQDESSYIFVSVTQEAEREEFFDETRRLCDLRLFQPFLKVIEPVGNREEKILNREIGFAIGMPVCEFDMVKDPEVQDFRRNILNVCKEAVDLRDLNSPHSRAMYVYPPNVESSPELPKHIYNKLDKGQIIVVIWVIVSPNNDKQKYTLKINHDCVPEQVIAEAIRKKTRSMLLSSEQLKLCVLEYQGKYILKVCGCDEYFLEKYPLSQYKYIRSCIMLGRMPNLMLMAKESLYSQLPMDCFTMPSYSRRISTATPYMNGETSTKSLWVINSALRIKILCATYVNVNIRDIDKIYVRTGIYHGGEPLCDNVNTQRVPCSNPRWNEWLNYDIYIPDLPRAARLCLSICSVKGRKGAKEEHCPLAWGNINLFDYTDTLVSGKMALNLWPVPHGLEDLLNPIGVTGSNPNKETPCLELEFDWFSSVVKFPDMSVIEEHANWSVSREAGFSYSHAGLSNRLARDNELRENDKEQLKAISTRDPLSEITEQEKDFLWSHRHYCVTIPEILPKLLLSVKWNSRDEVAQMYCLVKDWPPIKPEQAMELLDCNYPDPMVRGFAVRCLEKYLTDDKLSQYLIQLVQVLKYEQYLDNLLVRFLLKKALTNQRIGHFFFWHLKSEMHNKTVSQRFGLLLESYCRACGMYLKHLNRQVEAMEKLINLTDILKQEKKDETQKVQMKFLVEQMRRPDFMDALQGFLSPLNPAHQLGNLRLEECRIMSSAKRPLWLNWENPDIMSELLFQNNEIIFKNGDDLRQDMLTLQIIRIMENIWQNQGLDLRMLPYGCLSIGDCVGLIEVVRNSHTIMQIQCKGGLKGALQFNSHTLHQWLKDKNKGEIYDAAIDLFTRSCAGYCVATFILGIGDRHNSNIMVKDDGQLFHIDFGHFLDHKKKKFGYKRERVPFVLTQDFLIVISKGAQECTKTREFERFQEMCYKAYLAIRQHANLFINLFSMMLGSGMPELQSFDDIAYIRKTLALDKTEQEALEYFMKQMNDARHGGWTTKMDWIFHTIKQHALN
Sequence of PI3Kα (p110[H1047R]/p85) kinase (P27986 whole entry partner): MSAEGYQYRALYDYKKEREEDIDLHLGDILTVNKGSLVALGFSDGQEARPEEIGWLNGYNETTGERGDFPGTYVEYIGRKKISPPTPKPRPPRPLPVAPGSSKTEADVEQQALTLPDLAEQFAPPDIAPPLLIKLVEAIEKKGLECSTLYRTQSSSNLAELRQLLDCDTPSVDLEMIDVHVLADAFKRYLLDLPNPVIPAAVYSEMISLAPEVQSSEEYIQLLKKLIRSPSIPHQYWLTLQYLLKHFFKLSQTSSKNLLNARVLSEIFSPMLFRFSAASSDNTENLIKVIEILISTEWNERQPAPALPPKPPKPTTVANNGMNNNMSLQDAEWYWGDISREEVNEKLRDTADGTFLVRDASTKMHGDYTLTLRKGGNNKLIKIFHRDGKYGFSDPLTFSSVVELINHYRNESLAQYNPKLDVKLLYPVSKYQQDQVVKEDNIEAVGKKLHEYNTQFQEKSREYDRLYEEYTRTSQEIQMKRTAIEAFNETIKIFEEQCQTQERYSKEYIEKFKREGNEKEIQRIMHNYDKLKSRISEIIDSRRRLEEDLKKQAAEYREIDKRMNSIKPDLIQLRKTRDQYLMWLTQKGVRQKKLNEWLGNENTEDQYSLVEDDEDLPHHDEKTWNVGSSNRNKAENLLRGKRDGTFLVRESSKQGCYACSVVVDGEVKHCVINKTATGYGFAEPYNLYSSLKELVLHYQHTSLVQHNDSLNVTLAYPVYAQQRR

The IC50 is the concentration that inhibits the measured activity by half. Turning to `Cc1cc([C@H](C)Nc2ccccc2C(=O)O)c2cc(-c3ccccc3)n(C)c(=O)c2c1` [Example 31, (S)-2-((1-(2,7-dimethyl-1-oxo-3-phenyl-1,2-dihydroisoquinolin-5-yl)ethyl)amino)benzoic acid], the values for the IC50 in assay [1], in assay [2] and in assay [3] were over 10000 nM, over 10000 nM and over 100000 nM, respectively.
Turning to `Cc1cc(C(C)Nc2ccccc2C(=O)O)c2cc(-c3ccccc3C#N)n(C)c(=O)c2c1` (stereo not drawn) [Example 32, 2-((1-(3-(2-cyanophenyl)-2,7-dimethyl-1-oxo-1,2-dihydroisoquinolin-5-yl)ethyl)amino)benzoic acid], in assay [1], the IC50 was found to be 264 nM and the “Selectivity: SK-BR-3/T-47D (p-AKT)” value was over 38. In assay [2], inhibition was half-maximal at 2460 nM (IC50) and the “Selectivity: SK-BR-3/T-47D (cell proliferation)” value is given as over 4.07. For the same compound, in assay [3], the IC50 turned out to be 332 nM and the “selectivity: WT/H1047R” value was found to be 184.0.
Consider `Cc1cc(C(C)Nc2cccnc2C(=O)O)c2cc(-c3ccc(F)cc3)n(C)c(=O)c2c1` (stereo not drawn) [Example 33, 3-((1-(3-(4-fluorophenyl)-2,7-dimethyl-1-oxo-1,2-dihydroisoquinolin-5-yl)ethyl)amino)picolinic acid], for which, in assay [1], the IC50 was 271 nM and the “Selectivity: SK-BR-3/T-47D (p-AKT)” value was 36.6. Further, in assay [2], the IC50 was found to be 1590 nM and the “Selectivity: SK-BR-3/T-47D (cell proliferation)” value is listed as over 6.28. Further, in assay [3], the IC50 turned out to be 1050 nM and the “selectivity: WT/H1047R” value was 52.6.
Regarding `Cc1cc([C@@H](C)Nc2ccccc2C(=O)O)c2cc(-c3ccc(F)cc3)n(C)c(=O)c2c1` [Example 34, (R)-2-((1-(3-(4-fluorophenyl)-2,7-dimethyl-1-oxo-1,2-dihydroisoquinolin-5-yl)ethyl)amino)benzoic acid], in assay [1], the IC50 was found to be 20.2 nM and the “Selectivity: SK-BR-3/T-47D (p-AKT)” value is recorded as over 494. Moreover, in assay [2], the IC50 amounted to 175 nM and the “Selectivity: SK-BR-3/T-47D (cell proliferation)” value is over 57. Moreover, in assay [3], the IC50 was 107 nM and the “selectivity: WT/H1047R” value is recorded as 39.0.
As to `Cc1cc([C@H](C)Nc2ccccc2C(=O)O)c2cc(-c3ccc(F)cc3)n(C)c(=O)c2c1` [Example 35, (S)-2-((1-(3-(4-fluorophenyl)-2,7-dimethyl-1-oxo-1,2-dihydroisoquinolin-5-yl)ethyl)amino)benzoic acid], the IC50 in assay [1] was over 10000 nM; in assay [2], over 10000 nM; in assay [3] it was over 100000 nM.
In the case of `Cc1cc(C(C)Nc2ccccc2C(=O)O)c2cc(-c3ccccn3)n(C)c(=O)c2c1` (stereo not drawn) [Example 36, 2-((1-(2,7-dimethyl-1-oxo-3-(pyridin-2-yl)-1,2-dihydroisoquinolin-5-yl)ethyl)amino)benzoic acid], in assay [1], the IC50 turned out to be 467 nM and the “Selectivity: SK-BR-3/T-47D (p-AKT)” value is recorded as over 21. In assay [2], half-maximal inhibition (IC50) required 1420 nM and the “Selectivity: SK-BR-3/T-47D (cell proliferation)” value is over 7.04. Further, in assay [3], the IC50 is 603 nM and the “selectivity: WT/H1047R” value came to 84.2.
In the case of `Cc1cc(C(C)Nc2ccccc2C(=O)O)c2cc(-c3cccnc3)n(C)c(=O)c2c1` (stereo not drawn) [Example 37, 2-((1-(2,7-dimethyl-1-oxo-3-(pyridin-3-yl)-1,2-dihydroisoquinolin-5-yl)ethyl)amino)benzoic acid], in assay [1], the IC50 worked out at 382 nM and the “Selectivity: SK-BR-3/T-47D (p-AKT)” value is reported as over 26. Further, in assay [2], 172 nM corresponded to half-maximal inhibition (IC50) and the “Selectivity: SK-BR-3/T-47D (cell proliferation)” value is given as over 58.3. Besides, in assay [3], the IC50 worked out at 309 nM and the “selectivity: WT/H1047R” value is recorded as 40.6.
`Cc1cc(C(C)Nc2ccccc2C(=O)O)c2cc(-c3cncc(F)c3)n(C)c(=O)c2c1` (stereo not drawn) [Example 38, 2-((1-(3-(5-fluoropyridin-3-yl)-2,7-dimethyl-1-oxo-1,2-dihydroisoquinolin-5-yl)ethyl)amino)benzoic acid]: in assay [1], the IC50 stood at 285 nM and the “Selectivity: SK-BR-3/T-47D (p-AKT)” value is on record as over 35. In assay [2], the IC50 is 216 nM and the “Selectivity: SK-BR-3/T-47D (cell proliferation)” value is given as over 46. In assay [3], half-maximal inhibition (IC50) was put at 267 nM and the “selectivity: WT/H1047R” value was found to be 36.7.
On to `Cc1cc(C(C)Nc2ccccc2C(=O)O)c2cc(-c3ccc4nn(C)cc4n3)n(C)c(=O)c2c1` (stereo not drawn) [Example 39, 2-((1-(2,7-dimethyl-3-(2-methyl-2H-pyrazolo[4,3-b]pyridin-5-yl)-1-oxo-1,2-dihydroisoquinolin-5-yl)ethyl)amino)benzoic acid], for which, in assay [1], the IC50 is 1110 nM and the “Selectivity: SK-BR-3/T-47D (p-AKT)” value is on record as 5.6. In assay [2], the IC50 stood at 496 nM and the “Selectivity: SK-BR-3/T-47D (cell proliferation)” value was over 20. For the same compound, in assay [3], the IC50 was found to be 922 nM and the “selectivity: WT/H1047R” value turned out to be 11.5.
As for `Cc1cc([C@@H](C)Nc2ccccc2C(=O)O)c2cc(-c3ccc(-c4cnn(C)c4)cc3)n(C)c(=O)c2c1` [Example 40, (R)-2-((1-(2,7-dimethyl-3-(4-(1-methyl-1H-pyrazol-4-yl)phenyl)-1-oxo-1,2-dihydroisoquinolin-5-yl)ethyl)amino)benzoic acid], in assay [1], the IC50 was found to be 24.3 nM and the “Selectivity: SK-BR-3/T-47D (p-AKT)” value is recorded as 33.5. Moreover, in assay [2], the IC50 was 52.7 nM and the “Selectivity: SK-BR-3/T-47D (cell proliferation)” value is over 190. Further, in assay [3], inhibition was half-maximal at 55 nM (IC50) and the “selectivity: WT/H1047R” value was 93.1.
Turning to `Cc1cc(C(C)Nc2ccccc2C(=O)O)c2cc(C#Cc3ccccc3)n(C)c(=O)c2c1` (stereo not drawn) [Example 43, 2-((1-(2,7-dimethyl-1-oxo-3-(phenylethynyl)-1,2-dihydroisoquinolin-5-yl)ethyl)amino)benzoic acid], in assay [1], the IC50 came out at 408 nM and the “Selectivity: SK-BR-3/T-47D (p-AKT)” value worked out at 4.0. Also, in assay [2], the IC50 was 620 nM and the “Selectivity: SK-BR-3/T-47D (cell proliferation)” value is on record as over 16. In assay [3], it took 235 nM to reach half-maximal inhibition (IC50) and the “selectivity: WT/H1047R” value is 10.1.
On to `Cc1cc(C(C)Nc2ccccc2C(=O)O)c2cc(/C=C/c3ccccc3)n(C)c(=O)c2c1` (stereo not drawn) [Example 44, (E)-2-((1-(2,7-dimethyl-1-oxo-3-styryl-1,2-dihydroisoquinolin-5-yl)ethyl)amino)benzoic acid], for which, in assay [1], the IC50 worked out at 560 nM and the “Selectivity: SK-BR-3/T-47D (p-AKT)” value came to 3.8. Further, in assay [2], the IC50 was 4770 nM and the “Selectivity: SK-BR-3/T-47D (cell proliferation)” value was over 2.1. Further, in assay [3], the midpoint of inhibition, the IC50, lay at 795 nM and the “selectivity: WT/H1047R” value was 2.3.
Turning to `Cc1cc(C(C)Nc2ccccc2C(=O)O)c2cc(C3=Cc4ccccc4CC3)n(C)c(=O)c2c1` (stereo not drawn) [Example 45, 2-((1-(3-(3,4-dihydronaphthalen-2-yl)-2,7-dimethyl-1-oxo-1,2-dihydroisoquinolin-5-yl)ethyl)amino)benzoic acid], in assay [1], the IC50 is 63.9 nM and the “Selectivity: SK-BR-3/T-47D (p-AKT)” value is 44.0. For the same compound, in assay [2], the IC50 came to 841 nM and the “Selectivity: SK-BR-3/T-47D (cell proliferation)” value was over 12. Further, in assay [3], half-maximal inhibition (IC50) was put at 273 nM and the “selectivity: WT/H1047R” value came out at 26.4.
For `Cc1cc(C(C)Nc2ccccc2C(=O)O)c2cc(C3=CCN(c4ccccc4)CC3)n(C)c(=O)c2c1` (stereo not drawn) [Example 46, 2-((1-(2,7-dimethyl-1-oxo-3-(1-phenyl-1,2,3,6-tetrahydropyridin-4-yl)-1,2-dihydroisoquinolin-5-yl)ethyl)amino)benzoic acid], in assay [1], the IC50 was determined as 92.4 nM and the “Selectivity: SK-BR-3/T-47D (p-AKT)” value worked out at 54.8. Besides, in assay [2], the IC50 worked out at 210 nM and the “Selectivity: SK-BR-3/T-47D (cell proliferation)” value was over 48. For the same compound, in assay [3], 480 nM corresponded to half-maximal inhibition (IC50) and the “selectivity: WT/H1047R” value is 23.0.
